Patent US8629277B2, “Styrenyl 1,2,4-oxadiazole compounds” (Piramal Enterprises Limited, priority 2010, dated 2014)
Structures can show the parent of a compound that is named as a salt. Where two headings read alike, the source gives them in different places.

Assays:
[1] = tested on: K562; test: Cell proliferation and cytotoxicity CCK-8 assay; type: cell-based, human; details: imatinib sensitive cell line K562, CCK-8, 72 h, read-out: Inhibitory concentrations (IC50) K562
[2] = target: Ba/F3 Bcr-Abl/T315I (Homo sapiens, UniProt P00519, T315I, cells depend on it); details: read-out: Inhibitory concentrations (IC50) Ba/F3 Bcr-Abl/T315I; imatinib resistant cell line; CCK-8, 72 h
Source text: (§1) Cell Proliferation and Cytotoxicity CCK-8 Assay:
(§2) Cell Counting Kit-8 (CCK-8) assay is a sensitive colorimetric assay for the determination of number of viable cells in cell proliferation and cytotoxicity assays. Cell Counting Kit-8 (CCK-8) utilizes Dojindo's highly water-soluble tetrazolium salt. The amount of the formazan dye generated by dehydrogenases in cells is directly proportional to the number of living cells.
(§3) The cell lines described in Table 1 were used to test the antiproliferative activity of the compounds of the present invention.
(§4) Cells were seeded at a density of ˜5×10^3 per well (0.09 mL) in a transparent 96-well tissue culture plate (NUNC, USA) and allowed to incubate at 37° C., 5% CO2 incubator for 2-6 h. Different concentrations of compounds of the present invention were added to the wells of the culture plate in triplicate. […] Plates were further incubated in an incubator at 37° C. in presence of 5% CO2 for 72 h. 10 μL of the CCK-8 solution was added to each well and plate was incubated for 1-4 h in the incubator. The absorbance was measured at 450 nm using a microplate reader. The percent inhibition and IC50 were calculated in comparison with control values.

[3] = target: T1, Ba/F3 Bcr-Abl/WT (Homo sapiens, UniProt P00519); test: Cell proliferation and cytotoxicity CCK-8 assay; type: cell-based; details: imatinib sensitive cell line; CCK-8, 72 h; read-out: Inhibitory concentrations (IC50) Ba/F3 Bcr-Abl/WT
T1 construct: fused on or other part: P11274 (Breakpoint cluster region protein)
Source text: as §1, §2, §3, §4

[4] = tested on: E255V; test: Flow cytometric analysis of apoptosis (PI staining); type: cell-based
Procedure: (§5) Effect of the Compounds of Present Invention in Bcr-Abl Mutated Imatinib Mesylate-Resistant Cell Lines on Cell Cycle and Apoptosis Using Flow Cytometry.
(§6) The assay was carried out as in reference, FEBS Letters, 2007, 581, 7, 1329-1334. […] At the end of incubation, cells were harvested by centrifugation at 1000 rpm for 10 minutes, washed with phosphate buffered saline (PBS) and gradually resuspended in 70% ice-cold ethanol (to facilitate the permeablisation of stains). Cell suspension was stored for a minimum period of 4 h before staining with propidium iodide (PI). Fixed cells were stained with PI (80 μg/mL) in presence of RNase A (50 μg/mL), and read on Becton Dickinson FACS Calibur (USA) for cell cycle analysis.

[5] = tested on: Ba/F3; test: as above; type: cell-based
Procedure: as §5, §6

[6] = tested on: T315I; test: as above; type: cell-based
Procedure: as §5, §6

[7] = tested on: Y253; test: as above; type: cell-based
Procedure: as §5, §6

[8] = tested on: K562; test: as above; type: cell-based, human
Procedure: as §5, §6

Compound	IC50 ([1]; Homo sapiens) [µM]	GI50 [2] [µM]	GI50 [3] [µM]	other results
Cc1noc(C=Cc2ccc(O)c(O)c2)n1 [Compound of Example 1, 4-[2-(3-Methyl-[1,2,4]oxadiazol-5-yl)-vinyl]-benzene-1,2-diol]	11 to 100	11 to 100	11 to 100	–
CCc1noc(C=Cc2ccc(O)c(O)c2)n1 [Compound of Example 2, 4-[2-(3-Ethyl-[1,2,4]oxadiazol-5-yl)-vinyl]-benzene-1,2-diol]	< 10	< 10	< 10	–
CCCc1noc(C=Cc2ccc(O)c(NS(C)(=O)=O)c2)n1 [Compound of Example 10, N-{2-Hydroxy-5-[2-(3-propyl-[1,2,4]oxadiazol-5-yl)-vinyl]-phenyl}-methanesulfonamide]	> 100	11 to 100	11 to 100	–
CCCc1nc(C=Cc2ccc(O)c(N)c2)no1 [Compound of Example 12, 2-Amino-4-[2-(5-propyl-[1,2,4]oxadiazol-3-yl)-vinyl]-phenol]	11 to 100	< 10	11 to 100	–
CN1CCC(c2noc(C=Cc3ccc(O)c(O)c3)n2)CC1 [Compound of Example 20, 4-[2-(3-Piperidin-4,1-methyl-[1,2,4]oxadiazol-5-yl)-vinyl]-benzene-1,2-diol]	–	11 to 100	11 to 100	IC50 [1]: 11 to 100 µM
CC(C)N1CCC(Cc2noc(C=Cc3ccc(O)c(O)c3)n2)CC1 [Compound of Example 22, 4-{2-[3-(1-Isopropyl-piperidin-4-ylmethyl)-[1,2,4]oxadiazol-5-yl]-vinyl}-benzene-1,2-diol]	11 to 100	11 to 100	11 to 100	–
CN(C)CCN1CCC(Cc2noc(C=Cc3ccc(O)c(O)c3)n2)CC1 [Compound of Example 24, 4-(2-{3-[1-(2-Dimethylamino-ethyl)-piperidin-4-ylmethyl]-[1,2,4]oxadiazol-5-yl}-vinyl)-benzene-1,2-diol]	11 to 100	11 to 100	11 to 100	–
Oc1ccc(C=Cc2nc(CC3CCN(Cc4ccccc4)CC3)no2)cc1O [Compound of Example 31, 4-{2-[3-(1-Benzyl-piperidin-4-ylmethyl)-[1,2,4]oxadiazol-5-yl]-vinyl}-benzene-1,2-diol]	11 to 100	11 to 100	11 to 100	–
CCCCCCCCCc1noc(C=Cc2ccc(O)c(O)c2)n1 [Compound of Example 34, 4-[2-(3-Nonyl-[1,2,4]oxadiazol-5-yl)-vinyl]-benzene-1,2-diol]	11 to 100	< 10	< 10	–
Oc1ccc(C=Cc2nc(C3CC3)no2)cc1O [Compound of Example 37, 4-[2-(3-Cyclopropyl-[1,2,4]oxadiazol-5-yl)-vinyl]-benzene-1,2-diol]	< 10	< 10	< 10	–
CCCCCc1noc(C=Cc2ccc(O)c(O)c2)n1 [Compound of Example 40, 4-[2-(3-Pentyl-[1,2,4]oxadiazol-5-yl)-vinyl]-benzene-1,2-diol]	< 10	< 10	< 10	–
CCCCCCc1noc(C=Cc2ccc(O)c(O)c2)n1 [Compound of Example 43]	–	< 10	< 10	IC50 [1]: < 10 µM
Oc1ccc(C=Cc2nc(CC3CCCCC3)no2)cc1O [Compound of Example 46, 4-[2-(3-Cyclohexylmethyl-[1,2,4]oxadiazol-5-yl)-vinyl]-benzene-1,2-diol]	< 10	< 10	< 10	–
CCCCCCCCc1noc(C=Cc2ccc(O)c(O)c2)n1 [Compound of Example 49, 4-[2-(3-Octyl-[1,2,4]oxadiazol-5-yl)-vinyl]-benzene-1,2-diol]	< 10	< 10	< 10	–
CCCCCCCc1noc(C=Cc2ccc(O)c(O)c2)n1 [Compound of Example 52, 4-[2-(3-Heptyl-[1,2,4]oxadiazol-5-yl)-vinyl]-benzene-1,2-diol]	< 10	< 10	< 10	–
Oc1ccc(C=Cc2nc(-c3cccnc3)no2)cc1O [Compound of Example 55, 4-[2-(3-Pyridin-3-yl-[1,2,4]oxadiazol-5-yl)-vinyl]-benzene-1,2-diol]	11 to 100	< 10	< 10	–
Oc1ccc(C=Cc2nc(C3CCCCCC3)no2)cc1O [Compound of Example 58, 4-[2-(3-Cycloheptyl-[1,2,4]oxadiazol-5-yl)-vinyl]-benzene-1,2-diol]	11 to 100	< 10	< 10	–
Oc1ccc(C=Cc2nc(C3CCCCC3)no2)cc1O [Compound of Example 61, 4-[2-(3-Cyclohexyl-[1,2,4]oxadiazol-5-yl)-vinyl]-benzene-1,2-diol]	11 to 100	< 10	< 10	–
Cc1ccc(NC(=O)c2ccc(CN3CCN(C)CC3)cc2)cc1Nc1nccc(-c2cccnc2)n1 [imatinib mesylate, Imatinib mesylate, reference compound]	–	–	–	% Apoptosis by Flow Cytometry Analysis ([4]; 3X IC50, 96 h time point): 61%; % Apoptosis by Flow Cytometry Analysis ([4]; 5X IC50, 48 h time point): 96.7%; % Apoptosis by Flow Cytometry Analysis ([4]; 5X IC50, 96 h time point): 98.4%; % Apoptosis by Flow Cytometry Analysis ([5]; 3X IC50, 96 h time point): 51%; % Apoptosis by Flow Cytometry Analysis ([5]; 5X IC50, 48 h time point): 40.3%; % Apoptosis by Flow Cytometry Analysis ([5]; 5X IC50, 96 h time point): 31%; % Apoptosis by Flow Cytometry Analysis ([6]; 3X IC50, 96 h time point): 26.6%; % Apoptosis by Flow Cytometry Analysis ([6]; 5X IC50, 48 h time point): 4.3%; % Apoptosis by Flow Cytometry Analysis ([6]; 5X IC50, 96 h time point): 25.2%; % Apoptosis by Flow Cytometry Analysis ([7]; 3X IC50, 96 h time point): 85.2%; % Apoptosis by Flow Cytometry Analysis ([7]; 5X IC50, 48 h time point): 78%; % Apoptosis by Flow Cytometry Analysis ([7]; 5X IC50, 96 h time point): 98.2%; % Apoptosis by Flow Cytometry Analysis ([8]; 3X IC50, 96 h time point): 95%; % Apoptosis by Flow Cytometry Analysis ([8]; 5X IC50, 48 h time point): 3.9%; % Apoptosis by Flow Cytometry Analysis ([8]; 5X IC50, 96 h time point): 92.6%
